From ChEMBL document CHEMBL4507268 (2021)

What was measured:
Conditions in all cases: Compound concentration 1000.0 nM
[1] = test system: Mast/stem cell growth factor receptor Kit (Homo sapiens), P10721 [V559D,V654A]
[2] = target: T1, Serine/threonine-protein kinase STK11 (Homo sapiens) (UniProt Q15831)
T1 sequence (whole entry): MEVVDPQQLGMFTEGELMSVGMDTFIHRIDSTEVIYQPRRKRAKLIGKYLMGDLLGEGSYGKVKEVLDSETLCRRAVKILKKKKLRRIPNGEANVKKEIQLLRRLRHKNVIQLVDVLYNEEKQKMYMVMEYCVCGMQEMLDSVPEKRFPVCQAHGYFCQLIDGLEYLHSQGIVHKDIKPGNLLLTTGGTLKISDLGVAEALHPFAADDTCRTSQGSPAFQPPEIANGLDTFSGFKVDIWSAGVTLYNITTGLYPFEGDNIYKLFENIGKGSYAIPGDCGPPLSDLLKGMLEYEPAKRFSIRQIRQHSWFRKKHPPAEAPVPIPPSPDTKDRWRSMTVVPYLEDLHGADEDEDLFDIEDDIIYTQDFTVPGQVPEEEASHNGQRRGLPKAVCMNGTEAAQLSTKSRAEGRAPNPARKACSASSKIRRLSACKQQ

[3] = target: Wee1-like protein kinase (Homo sapiens) (UniProt P30291)
[4] = target: Casein kinase I isoform gamma-1 (Homo sapiens) (UniProt Q9HCP0)
[5] = target: T2, Serine/threonine-protein kinase Chk1 (Homo sapiens) (UniProt O14757)
T2 sequence (whole entry): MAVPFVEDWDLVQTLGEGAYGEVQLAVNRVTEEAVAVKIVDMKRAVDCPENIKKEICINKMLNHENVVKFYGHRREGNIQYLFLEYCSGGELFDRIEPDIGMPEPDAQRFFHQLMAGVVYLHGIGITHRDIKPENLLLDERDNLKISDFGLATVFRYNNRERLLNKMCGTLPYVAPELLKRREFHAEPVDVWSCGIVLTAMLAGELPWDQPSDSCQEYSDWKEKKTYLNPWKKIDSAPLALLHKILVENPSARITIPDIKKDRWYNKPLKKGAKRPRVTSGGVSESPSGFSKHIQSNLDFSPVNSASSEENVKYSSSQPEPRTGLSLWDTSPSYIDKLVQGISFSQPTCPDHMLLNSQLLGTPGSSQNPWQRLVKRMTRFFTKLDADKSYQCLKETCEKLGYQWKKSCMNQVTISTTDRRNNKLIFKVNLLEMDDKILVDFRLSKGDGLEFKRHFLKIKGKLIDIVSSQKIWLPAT

[6] = target: Tyrosine-protein kinase ABL2 (Homo sapiens) (UniProt P42684)
[7] = target: Protein-tyrosine kinase 6 (Homo sapiens) (UniProt Q13882)
[8] = test system: Hepatocyte growth factor receptor (Homo sapiens), P08581 [Y1235D]
[9] = target: Cyclin-dependent kinase 3 (Homo sapiens) (UniProt Q00526)
[10] = target: Tyrosine-protein kinase SYK (Homo sapiens) (UniProt P43405)
[11] = target: T3, Serine/threonine-protein kinase D2 (Homo sapiens) (UniProt Q9BZL6)
T3 sequence (whole entry): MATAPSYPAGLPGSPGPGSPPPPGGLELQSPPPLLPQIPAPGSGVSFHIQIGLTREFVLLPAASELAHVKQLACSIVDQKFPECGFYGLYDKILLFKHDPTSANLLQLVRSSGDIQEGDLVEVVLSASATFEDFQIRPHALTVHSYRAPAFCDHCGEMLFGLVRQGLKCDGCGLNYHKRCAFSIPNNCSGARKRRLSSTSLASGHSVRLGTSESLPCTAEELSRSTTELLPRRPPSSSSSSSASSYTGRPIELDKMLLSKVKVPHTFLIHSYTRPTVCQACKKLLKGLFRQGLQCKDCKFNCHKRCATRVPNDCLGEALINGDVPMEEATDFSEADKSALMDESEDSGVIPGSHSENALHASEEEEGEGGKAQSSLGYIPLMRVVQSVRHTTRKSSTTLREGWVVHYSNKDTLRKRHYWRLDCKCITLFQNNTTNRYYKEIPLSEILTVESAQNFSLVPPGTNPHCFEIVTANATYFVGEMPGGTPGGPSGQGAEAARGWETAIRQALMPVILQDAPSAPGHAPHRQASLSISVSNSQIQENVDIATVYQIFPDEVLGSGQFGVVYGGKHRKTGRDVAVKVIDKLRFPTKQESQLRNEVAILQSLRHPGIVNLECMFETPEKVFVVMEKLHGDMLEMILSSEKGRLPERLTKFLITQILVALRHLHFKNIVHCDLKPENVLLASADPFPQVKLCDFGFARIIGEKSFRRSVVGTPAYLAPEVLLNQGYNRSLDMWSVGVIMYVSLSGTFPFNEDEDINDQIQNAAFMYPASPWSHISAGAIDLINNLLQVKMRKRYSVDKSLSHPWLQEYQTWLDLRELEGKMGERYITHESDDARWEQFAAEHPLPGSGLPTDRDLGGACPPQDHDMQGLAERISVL

[12] = target: STE20/SPS1-related proline-alanine-rich protein kinase (Homo sapiens) (UniProt Q9UEW8)

Measured: residual activity

Tyrosine-protein kinase ABL2 (Homo sapiens), sequence (P42684 whole entry): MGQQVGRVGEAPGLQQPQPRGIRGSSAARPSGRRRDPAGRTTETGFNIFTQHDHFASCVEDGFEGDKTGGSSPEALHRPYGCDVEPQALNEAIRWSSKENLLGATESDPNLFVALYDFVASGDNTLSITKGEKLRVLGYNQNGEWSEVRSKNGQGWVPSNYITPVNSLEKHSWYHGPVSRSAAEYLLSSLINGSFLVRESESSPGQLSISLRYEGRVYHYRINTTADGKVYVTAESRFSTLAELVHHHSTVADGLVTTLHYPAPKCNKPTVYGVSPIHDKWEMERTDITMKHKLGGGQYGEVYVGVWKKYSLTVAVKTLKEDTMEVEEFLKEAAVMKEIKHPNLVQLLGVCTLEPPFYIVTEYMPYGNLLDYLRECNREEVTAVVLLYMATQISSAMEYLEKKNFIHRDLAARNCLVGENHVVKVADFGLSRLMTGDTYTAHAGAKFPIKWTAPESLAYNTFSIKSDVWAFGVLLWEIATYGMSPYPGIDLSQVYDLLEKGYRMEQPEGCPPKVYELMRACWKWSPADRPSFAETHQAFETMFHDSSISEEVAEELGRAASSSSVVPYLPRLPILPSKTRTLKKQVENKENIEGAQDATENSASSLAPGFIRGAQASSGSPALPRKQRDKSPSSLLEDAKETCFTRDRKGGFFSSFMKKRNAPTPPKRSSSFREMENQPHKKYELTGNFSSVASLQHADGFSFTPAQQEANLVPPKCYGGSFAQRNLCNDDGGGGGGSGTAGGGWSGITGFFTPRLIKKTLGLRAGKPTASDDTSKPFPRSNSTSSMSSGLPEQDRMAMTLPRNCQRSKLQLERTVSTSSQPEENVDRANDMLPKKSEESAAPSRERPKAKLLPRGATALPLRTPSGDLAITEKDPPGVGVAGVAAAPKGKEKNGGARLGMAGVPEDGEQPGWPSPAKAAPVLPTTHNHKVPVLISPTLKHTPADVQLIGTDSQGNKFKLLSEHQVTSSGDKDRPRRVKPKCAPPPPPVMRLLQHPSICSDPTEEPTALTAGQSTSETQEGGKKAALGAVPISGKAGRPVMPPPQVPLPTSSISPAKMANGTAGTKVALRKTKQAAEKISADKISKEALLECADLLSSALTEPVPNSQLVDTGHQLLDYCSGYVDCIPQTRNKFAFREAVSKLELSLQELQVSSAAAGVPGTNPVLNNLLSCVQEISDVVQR
Mast/stem cell growth factor receptor Kit (Homo sapiens), P10721 [V559D,V654A], sequence (P10721 whole entry V559D/V654A): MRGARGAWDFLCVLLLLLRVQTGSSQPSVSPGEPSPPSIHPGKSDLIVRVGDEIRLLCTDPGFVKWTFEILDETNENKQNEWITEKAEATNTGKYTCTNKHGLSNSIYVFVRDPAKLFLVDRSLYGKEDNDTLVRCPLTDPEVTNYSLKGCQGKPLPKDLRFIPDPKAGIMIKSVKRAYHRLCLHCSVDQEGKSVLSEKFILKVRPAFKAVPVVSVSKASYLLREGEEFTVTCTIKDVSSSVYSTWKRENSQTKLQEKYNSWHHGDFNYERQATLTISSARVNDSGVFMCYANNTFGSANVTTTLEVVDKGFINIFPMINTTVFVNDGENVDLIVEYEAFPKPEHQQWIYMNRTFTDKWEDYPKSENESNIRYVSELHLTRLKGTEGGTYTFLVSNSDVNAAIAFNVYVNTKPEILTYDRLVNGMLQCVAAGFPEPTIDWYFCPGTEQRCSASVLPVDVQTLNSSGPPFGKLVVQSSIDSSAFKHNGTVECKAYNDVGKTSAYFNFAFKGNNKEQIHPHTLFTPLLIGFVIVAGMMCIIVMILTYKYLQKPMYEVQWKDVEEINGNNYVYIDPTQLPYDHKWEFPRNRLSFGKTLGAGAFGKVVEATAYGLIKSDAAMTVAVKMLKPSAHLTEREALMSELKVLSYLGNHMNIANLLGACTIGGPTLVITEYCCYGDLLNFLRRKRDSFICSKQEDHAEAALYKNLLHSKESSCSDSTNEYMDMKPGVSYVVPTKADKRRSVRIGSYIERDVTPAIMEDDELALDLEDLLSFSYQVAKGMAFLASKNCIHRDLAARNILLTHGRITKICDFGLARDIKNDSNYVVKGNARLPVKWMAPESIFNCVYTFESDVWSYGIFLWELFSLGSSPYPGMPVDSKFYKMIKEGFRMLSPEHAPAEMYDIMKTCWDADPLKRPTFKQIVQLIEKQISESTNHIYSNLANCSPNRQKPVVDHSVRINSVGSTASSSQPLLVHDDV
Casein kinase I isoform gamma-1 (Homo sapiens), sequence (Q9HCP0 whole entry, looked up, canonical isoform): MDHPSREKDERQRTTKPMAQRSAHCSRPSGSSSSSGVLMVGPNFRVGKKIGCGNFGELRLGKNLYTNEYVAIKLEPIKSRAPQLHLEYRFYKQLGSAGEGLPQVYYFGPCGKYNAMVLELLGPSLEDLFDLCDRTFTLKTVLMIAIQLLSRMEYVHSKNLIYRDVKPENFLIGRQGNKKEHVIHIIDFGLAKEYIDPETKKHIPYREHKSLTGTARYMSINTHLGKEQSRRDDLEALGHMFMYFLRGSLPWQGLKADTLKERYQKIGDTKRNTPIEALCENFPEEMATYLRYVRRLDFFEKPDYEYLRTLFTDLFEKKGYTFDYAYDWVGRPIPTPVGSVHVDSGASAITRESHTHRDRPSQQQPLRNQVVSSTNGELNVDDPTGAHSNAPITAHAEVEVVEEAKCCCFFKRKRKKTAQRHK
Protein-tyrosine kinase 6 (Homo sapiens), sequence (Q13882 whole entry, looked up): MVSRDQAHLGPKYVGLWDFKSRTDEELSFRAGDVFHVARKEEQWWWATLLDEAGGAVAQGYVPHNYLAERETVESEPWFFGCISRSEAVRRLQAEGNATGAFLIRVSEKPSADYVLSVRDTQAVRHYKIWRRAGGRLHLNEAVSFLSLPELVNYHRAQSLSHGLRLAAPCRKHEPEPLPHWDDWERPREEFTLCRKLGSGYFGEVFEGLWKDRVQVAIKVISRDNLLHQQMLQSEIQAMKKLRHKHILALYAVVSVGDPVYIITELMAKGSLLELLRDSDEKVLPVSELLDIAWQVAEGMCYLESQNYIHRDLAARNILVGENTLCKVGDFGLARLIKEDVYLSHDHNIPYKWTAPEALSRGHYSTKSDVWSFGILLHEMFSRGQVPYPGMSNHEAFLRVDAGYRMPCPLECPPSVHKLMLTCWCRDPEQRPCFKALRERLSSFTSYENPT
Wee1-like protein kinase (Homo sapiens), sequence (P30291 whole entry, looked up, canonical isoform): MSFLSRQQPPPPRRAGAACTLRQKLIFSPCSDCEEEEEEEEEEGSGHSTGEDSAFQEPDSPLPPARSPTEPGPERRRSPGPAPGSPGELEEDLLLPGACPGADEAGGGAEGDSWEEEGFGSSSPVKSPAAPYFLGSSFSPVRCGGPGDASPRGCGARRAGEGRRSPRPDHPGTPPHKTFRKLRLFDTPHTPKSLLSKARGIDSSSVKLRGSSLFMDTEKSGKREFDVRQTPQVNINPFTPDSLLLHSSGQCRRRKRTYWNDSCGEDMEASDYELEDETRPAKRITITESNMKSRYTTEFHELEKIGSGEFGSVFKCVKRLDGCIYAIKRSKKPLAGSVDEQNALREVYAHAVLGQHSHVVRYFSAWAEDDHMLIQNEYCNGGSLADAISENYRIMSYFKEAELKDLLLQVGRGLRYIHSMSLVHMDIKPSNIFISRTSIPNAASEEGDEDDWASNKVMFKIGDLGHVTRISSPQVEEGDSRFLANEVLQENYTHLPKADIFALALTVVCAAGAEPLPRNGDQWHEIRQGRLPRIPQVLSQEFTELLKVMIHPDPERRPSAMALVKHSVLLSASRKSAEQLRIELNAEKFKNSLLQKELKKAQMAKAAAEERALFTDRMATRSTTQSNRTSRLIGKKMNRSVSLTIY
Cyclin-dependent kinase 3 (Homo sapiens), sequence (Q00526 whole entry, looked up): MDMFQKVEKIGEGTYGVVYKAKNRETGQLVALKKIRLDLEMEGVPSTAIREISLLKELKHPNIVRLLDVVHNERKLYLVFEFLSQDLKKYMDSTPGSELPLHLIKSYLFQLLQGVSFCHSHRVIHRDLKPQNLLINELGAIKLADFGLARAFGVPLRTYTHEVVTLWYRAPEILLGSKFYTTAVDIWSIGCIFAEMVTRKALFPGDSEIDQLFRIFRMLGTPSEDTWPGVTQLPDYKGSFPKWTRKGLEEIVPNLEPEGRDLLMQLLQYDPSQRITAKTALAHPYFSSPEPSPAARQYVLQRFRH

Cc1nc(C2CCN(C(=O)c3ccc(OC(F)(F)F)cc3N)CC2)c2ncc(N3CCN(C)CC3)cc2n1 [BAY-693]
inactive: [1] 100% | [2] 100% | [3] 94% | [4] 100% | [5] 100% | [6] 93% | [7] 100% | [8] 98% | [9] 100% | [10] 98% | [11] 92% | [12] 100%

CN1CCN(c2cnc3c(C4CCN(C(=O)c5ccc(OC(F)(F)F)cc5N)CC4)ncnc3c2)CC1 [BAY-885]
inactive: [1] 84% | [2] 100% | [3] 96% | [4] 100% | [5] 100% | [6] 100% | [7] 100% | [8] 73% | [9] 100% | [10] 100% | [11] 100% | [12] 81%
